Data: patent publication US20090312297A1, “METHODS FOR TREATING HYPERCHOLESTEROLEMIA AND ATHEROSCLEROSIS” (PRESIDENT AND FELLOWS OF HARVARD COLLEGE, priority 2006, published 2009)

Columns and labels:
Format in all cases: in vivo, mouse
apoE−/− mice [1] = test: Lipoprotein profile analysis of serum by HPLC in apoE−/− mice on western diet; conditions: Example 2, 3 months
Experimental: (§1) apoE−/− mice were purchased from Jackson Labs. At 6 weeks of age, the mice were placed on a western diet and treatments with either phosphate buffered saline (PBS) (vehicle); TUDCA (50 mg/kg/day or 500 mg/kg/day, single dose, i.p.); or 4-PBA (10 mg/kg/day, 200 mg/kg/day, or 1 g/kg/day, single dose, oral gavage) were started.
(§2) Blood samples were obtained from the animals described above. Lipoprotein profiles analysis was performed by HPLC (FIG. 2b), and total cholesterol levels (FIG. 2c). […] Moreover, the ability to reduce the development of atherosclerotic lesions is not dependent on the ability of a compound to reduce cholesterol.

apoE−/− mice [2] = test: Atherosclerotic lesions in aortas (Oil-Red-O staining) of apoE−/− mice on western diet; conditions: for atherosclerotic lesion area per full aorta: p<0.05 vs. control, FIG. 2(a)
Experimental: (§3) apoE−/− mice (a commonly used model of hypercholesterolemia and atherosclerosis) were purchased from Jackson Labs. At 6 weeks of age, the mice were placed on a western diet (to further increase cholesterol levels and vascular lesions) and treatments with either phosphate buffered saline (PBS) (vehicle) or TUDCA (500 mg/kg/day, single dose, i.p.) were started.
After 3 months of western diet and treatment, mice were sacrificed and aortas were dissected and fixed in 10% buffered formalin and stained with Oil-Red-O which stains lipids.
as §1
After 3 months of western diet and treatment, mice were sacrificed and aortas were dissected and fixed in 10% buffered formalin and stained with Oil-Red-O. The amount of atherosclerotic lesion area per full aorta was determine and is expressed as a percent as shown in FIG. 2(a). Mice receiving vehicle (PBS) developed robust atherosclerotic lesions in the aortic arch as well as in the thoracic and abdominal parts of the aorta (0.25%±0.06). […] PBA administration at a dose of 10 mg/kg/day was also found to be effective in reducing formation of atherosclerotic lesions (0.09%±0.03, n=4, p<0.05 vs. control).

apoE−/− mice [3] = test: Serum total cholesterol levels in apoE−/− mice on western diet; conditions: 3 months
Experimental: as §3
Blood samples were obtained from the animals described above and serum cholesterol levels were determined by the Piccolo automated device with lipid panel (Abaxis, Calif.).
as §1, §2

Compound	total cholesterol or specific lipoprotein levels (apoE−/− mice [1]; 4-PBA oral gavage (10 mg/kg in FIG. 2))	amount of atherosclerotic lesion relative to control treated animals (apoE−/− mice [2]; Example 1, about 10 mg/kg/day, similar conditions)	atherosclerotic lesion area per full aorta (apoE−/− mice [2]; Example 2, 10 mg/kg/day oral gavage, 3 months, n=4)	reduction of formation of atherosclerotic lesions (apoE−/− mice [2]; Example 2, higher doses (200 mg/kg/day, 1 g/kg/day), oral gavage, 3 months)	total cholesterol or specific lipoprotein levels (apoE−/− mice [1]; 50 mg/kg/day i.p.)	HDL (apoE−/− mice [1]; 500 mg/kg/day i.p., FIG. 2b)	LDL (apoE−/− mice [1]; 500 mg/kg/day i.p., FIG. 2b)	VLDL (apoE−/− mice [1]; 500 mg/kg/day i.p., FIG. 2b)	serum cholesterol levels (apoE−/− mice [3]; Example 1, 500 mg/kg/day, single dose, i.p., Piccolo lipid panel, FIG. 1, vs PBS)	total cholesterol (apoE−/− mice [3]; Example 2, 500 mg/kg/day i.p., FIG. 2c)	Oil-Red-O staining of aortas (apoE−/− mice [2]; Example 1, 500 mg/kg/day, single dose, i.p., 3 months of western diet and treatment, vs PBS)	atherosclerotic lesion area per full aorta (apoE−/− mice [2]; Example 2, 50 mg/kg/day i.p., 3 months, n=3)	atherosclerotic lesion area per full aorta (apoE−/− mice [2]; Example 2, 500 mg/kg/day i.p., 3 months, n=3)
O=C(O)CCCc1ccccc1 [PBA, 4-phenyl butyrate]	no significant changes	effective in reducing the amount of atherosclerotic lesion	0.09%±0.03	no similar reduction was observed									
C[C@H](CCC(=O)NCCS(=O)(=O)O)[C@H]1CC[C@H]2[C@@H]3[C@@H](O)C[C@@H]4C[C@H](O)CC[C@]4(C)[C@H]3CC[C@]12C [TUDCA, tauroursodeoxycholic acid]					no significant changes	marked increase	significant decrease	significant decrease	significantly (p<0.001) lowered	significant decrease	PBS treated animals had substantially more Oil-Red-O staining	0.03%±0.01	0.01%±0.01
